The results in this text go back to patent publication US8822699B2, “Heterocyclic compound and use thereof” (Takeda Pharmaceutical Company Limited, priority 2010, dated 2014).

The structures appear in SMILES notation.

The subject of one assay is Aβ42 production in primary nerve cells. In words: Measurement of amyloid β production inhibition rate using primary nerve cell (Aβ42 sandwich ELISA). It counts as cell-based. The following applies: Rattus norvegicus, 72 h, primary nerve cells from cerebral cortex of SD rat fetus; cultured 3 days with compound; culture supernatant, sandwich ELISA for Aβ42; read-out: Aβ42 production inhibitory activity IC50. As for the experimental part:
Measurement of Amyloid β Production Inhibition Rate Using Primary Nerve Cell
The primary nerve cells were collected from the cerebral cortex of rat fetus (CLEA Japan, Inc.: SD rat, fetal life 17 days of age), and suspended in a neurobasal medium containing B27 supplement, L-glutamine, penicillin-streptomycin (manufactured by Invitrogen) at 500,000 cells/mL. Then, the suspension was seeded in poly L-lysine-coated 96 well plate (manufactured by SUMITOMO BAKELITE) by 100 μL, and cultured at 37° C., 5% CO2 for 7 days. The medium was completely removed, and a new neurobasal medium was added at 75 μL/well. Thereto was added (75 μL/well) a neurobasal medium supplemented with a 2-fold measurement concentration of an evaluation target compound, and the mixture was cultured for 3 days. The culture supernatant was collected from each well, diluted as appropriate, applied to sandwich ELISA between BNT77 antibody-BA27 antibody (for Aβ40) and sandwich ELISA between BNT77 antibody-3005 antibody (for Aβ42), and the amounts of Aβ40 and Aβ42 were measured.
The amyloid β production inhibition rate (%) of the compound was calculated by the following formula. (1−(amyloid β production amount with addition of compound)/(amyloid β production amount without addition of compound))×100
The amyloid β production 50% inhibitory rate (IC50 value) was calculated using the statistical analysis software (SAS Preclinical Package) as the concentration of the compound showing 50% inhibition when the amyloid β production amount without addition of the compound is 100%. In addition, a new neurobasal medium was added (75 μL/well) to the cells after collection of the culture supernatant, and the cells were left standing for about 30 min to reach room temperature. Cell-Titer Glo Luminescent Cell Viability Assay (manufactured by Promega) was added at 75 μL/well, and the plate was shaken for 2 min and reacted for about 10 min.
On the technique in general: ELISA stands for enzyme-linked immunosorbent assay.
In general, IC50 refers to the concentration needed to halve the response being measured. With `COc1cc(-c2nnc3n2CCCC3(c2ccc(F)c(F)c2)C(C)(C)O)ccc1-c1cnc(C)o1` (centres unmarked) [Example 32, 2-{8-(3,4-difluorophenyl)-3-[3-methoxy-4-(2-methyl-1,3-oxazol-5-yl)phenyl]-5,6,7,8-tetrahydro[1,2,4]triazolo[4,3-a]pyridin-8-yl}propan-2-ol], the IC50 amounted to 143 nM.
As to `COc1cc(-c2nnc3n2CCCC3(Cc2ccc(F)c(F)c2)C(=O)N(C)CC(F)(F)F)ccc1-c1cnc(C)o1` (centres unmarked) [Example 60, 8-(3,4-difluorobenzyl)-3-[3-methoxy-4-(2-methyl-1,3-oxazol-5-yl)phenyl]-N-methyl-N-(2,2,2-trifluoroethyl)-5,6,7,8-tetrahydro[1,2,4]triazolo[4,3-a]pyridine-8-carboxamide], the IC50 was 50 nM.
In the case of `COc1cc(-c2nnc3n2CCCC3(Oc2ccc(Cl)c(F)c2)C(C)(C)O)ccc1-c1cnc(C)o1` (centres unmarked) [Example 70, 2-{8-(4-chloro-3-fluorophenoxy)-3-[3-methoxy-4-(2-methyl-1,3-oxazol-5-yl)phenyl]-5,6,7,8-tetrahydro[1,2,4]triazolo[4,3-a]pyridin-8-yl}propan-2-ol], the IC50 turned out to be 10 nM.
With `COc1cc(-c2nnc3n2CCCC3(CC2CC2)c2ccc(Cl)c(C(F)(F)F)c2)ccc1-n1cnc(C)c1` (centres unmarked) [Example 78, 8-[4-chloro-3-(trifluoromethyl)phenyl]-8-(cyclopropylmethyl)-3-[3-methoxy-4-(4-methyl-1H-imidazol-1-yl)phenyl]-5,6,7,8-tetrahydro[1,2,4]triazolo-[4,3-a]pyridine], the IC50 was 55 nM.
Consider `COc1cc(-c2nnn3c2CCCC3(C)c2ccc(Cl)c(Cl)c2)ccc1-n1cnc(C)n1` (centres unmarked) [Example 91, 7-(3,4-dichlorophenyl)-3-[3-methoxy-4-(3-methyl-1H-1,2,4-triazol-1-yl)phenyl]-7-methyl-4,5,6,7-tetrahydro[1,2,3]triazolo[1,5-a]pyridine], for which the IC50 came out at 148 nM.
Take `COc1cc(-c2nnc3n2CCCC3(Oc2ccc(C(F)(F)F)cn2)C(C)(C)O)ccc1-c1cnc(C)o1` (centres unmarked) [Example 95, 2-(3-[3-methoxy-4-(2-methyl-1,3-oxazol-5-yl)phenyl]-8-{[5-(trifluoromethyl)pyridin-2-yl]oxy}-5,6,7,8-tetrahydro[1,2,4]triazolo-[4,3-a]pyridin-8-yl)propan-2-ol]: the half-maximal inhibitory concentration (IC50) was determined as 34 nM.
As for `COc1cc(-c2nnc3n2CCCC3(OCc2ccc(F)c(F)c2)C(=O)N(C)CC(F)(F)F)ccc1-c1cnc(C)o1` (centres unmarked) [Example 108, 8-[(3,4-difluorobenzyl)oxy]-3-[3-methoxy-4-(2-methyl-1,3-oxazol-5-yl)phenyl]-N-methyl-N-(2,2,2-trifluoroethyl)-5,6,7,8-tetrahydro[1,2,4]triazolo[4,3-a]pyridine-8-carboxamide], the IC50 was 67 nM.
Regarding `COc1nc(-c2nnc3n2CCCC3(Oc2ccc(F)c(F)c2)C(C)(C)O)ccc1-n1cnc(C)c1` (centres unmarked) [Example 135, 2-{8-(3,4-difluorophenoxy)-3-[6-methoxy-5-(4-methyl-1H-imidazol-1-yl)pyridin-2-yl]-5,6,7,8-tetrahydro[1,2,4]triazolo[4,3-a]pyridin-8-yl}propan-2-ol], the IC50 amounted to 123 nM.
Take `COc1cc(-c2nnc3n2CCCC3(Sc2ccc(F)c(F)c2)C(C)(C)O)ccc1-c1cnc(C)o1` (centres unmarked) [Example 140, 2-{8-[(3,4-difluorophenyl)sulfanyl]-3-[3-methoxy-4-(2-methyl-1,3-oxazol-5-yl)phenyl]-5,6,7,8-tetrahydro[1,2,4]triazolo[4,3-a]pyridin-8-yl}propan-2-ol]: the IC50 was 41 nM.
Consider `COc1cc(-c2nnc3n2CC(C)CC3(Oc2ccc(F)c(F)c2)C(C)(C)O)ccc1-c1cnc(C)o1` (stereo not drawn) [Example 150, (6RS,8RS or 6RS,8SR)-2-{8-(3,4-difluorophenoxy)-3-[3-methoxy-4-(2-methyl-1,3-oxazol-5-yl)phenyl]-6-methyl-5,6,7,8-tetrahydro[1,2,4]triazolo[4,3-a]pyridin-8-yl}propan-2-ol], for which the IC50 came to 118 nM.
The same measure, in the same setting: for `COc1cc(-c2nnc3n2CCCC3(Oc2cc(F)c(F)c(F)c2)C(=O)N(C)CC(F)(F)F)ccc1-c1cnc(C)o1` (centres unmarked) [Example 160, 3-[3-methoxy-4-(2-methyl-1,3-oxazol-5-yl)phenyl]-N-methyl-N-(2,2,2-trifluoro-ethyl)-8-(3,4,5-trifluorophenoxy)-5,6,7,8-tetrahydro-[1,2,4]triazolo[4,3-a]pyridine-8-carboxamide] the value was 19 nM; for `COc1cc(-c2nnc3n2CCCC3(Oc2cc(F)c(F)c(F)c2)C(C)(C)O)ccc1-n1cnc(Cl)c1` (centres unmarked) [Example 165, 2-{3-[4-(4-chloro-1H-imidazol-1-yl)-3-methoxyphenyl]-8-(3,4,5-trifluorophenoxy)-5,6,7,8-tetrahydro[1,2,4]triazolo[4,3-a]pyridin-8-yl}propan-2-ol], 143 nM.
As to `Cc1ncc(-c2ccc(-c3nnc4n3CCCC4(Oc3cc(F)c(F)c(F)c3)C(C)(C)O)cc2F)o1` (centres unmarked) [Example 166, 2-{3-[3-fluoro-4-(2-methyl-1,3-oxazol-5-yl)phenyl]-8-(3,4,5-trifluorophenoxy)-5,6,7,8-tetrahydro[1,2,4]triazolo[4,3-a]pyridin-8-yl}propan-2-ol], the IC50 was determined as 360 nM.
Same read-out and setting: the value for `Cc1ncc(-c2ccc(-c3nnc4n3CCCC4(Oc3ccc(F)c(F)c3)C(C)(C)O)cc2O)o1` (centres unmarked) [Example 168, 5-[8-(3,4-difluorophenoxy)-8-(1-hydroxy-1-methylethyl)-5,6,7,8-tetrahydro[1,2,4]triazolo[4,3-a]pyridin-3-yl]-2-(2-methyl-1,3-oxazol-5-yl)phenol] was 40 nM; that for `COc1cc(-c2nnc3n2CCCC3(Oc2cc(F)c(F)c(F)c2)C(C)(C)O)ccc1-c1ccnc(C)c1` (centres unmarked) [Example 174, 2-{3-[3-methoxy-4-(2-methylpyridin-4-yl)phenyl]-8-(3,4,5-trifluorophenoxy)-5,6,7,8-tetrahydro[1,2,4]triazolo[4,3-a]pyridin-8-yl}propan-2-ol] was 44 nM; that for `Cc1ncc(-c2ccc(-c3nnc4n3CCCC4(Oc3ccc(F)c(F)c3)C(C)(C)O)cc2OCC(F)F)o1` (centres unmarked) [Example 175, 2-{3-[3-(2,2-difluoroethoxy)-4-(2-methyl-1,3-oxazol-5-yl)phenyl]-8-(3,4-difluorophenoxy)-5,6,7,8-tetrahydro[1,2,4]-triazolo[4,3-a]pyridin-8-yl}propan-2-ol] was 103 nM.
Still for that read-out and setting: for `Cc1ncc(-c2ccc(-c3nnc4n3CCCC4(Oc3cc(F)c(F)c(F)c3)C(C)(C)O)cc2)o1` (centres unmarked) [Example 178, 2-{3-[4-(2-methyl-1,3-oxazol-5-yl)phenyl]-8-(3,4,5-trifluorophenoxy)-5,6,7,8-tetrahydro[1,2,4]triazolo[4,3-a]pyridin-8-yl}propan-2-ol] the value was 168 nM.

Staying with this assay, now noted: primary nerve cells from cerebral cortex of SD rat fetus; cultured 3 days with compound; culture supernatant, sandwich ELISA for Aβ42; read-out: Aβ42 production inhibitory activity IC50.
Turning to `COc1cc(-c2nnc3n2CCCC3(C)c2ccc(Cl)cc2)ccc1-c1cnc(C)o1` (single isomer, unassigned) [Example 3, 8-(4-chlorophenyl)-3-[3-methoxy-4-(2-methyl-1,3-oxazol-5-yl)phenyl]-8-methyl-5,6,7,8-tetrahydro[1,2,4]triazolo[4,3-a]pyridine], the IC50 worked out at 459 nM.
Consider `COc1cc(-c2nnc3n2CCCC3(C)c2ccc(Cl)cc2)ccc1-c1cnc(C)o1` (single isomer, unassigned) [Example 4, optically active 8-(4-chlorophenyl)-3-[3-methoxy-4-(2-methyl-1,3-oxazol-5-yl)phenyl]-8-methyl-5,6,7,8-tetrahydro[1,2,4]triazolo[4,3-a]pyridine], for which the IC50 was 32 nM.
`COc1cc(-c2nnc3n2CCCC3(CC2CC2)c2ccc(F)c(F)c2)ccc1-c1cnc(C)o1` (centres unmarked) [Example 20, 8-(cyclopropylmethyl)-8-(3,4-difluorophenyl)-3-[3-methoxy-4-(2-methyl-1,3-oxazol-5-yl)phenyl]-5,6,7,8-tetrahydro[1,2,4]triazolo-[4,3-a]pyridine]: the IC50 is 35 nM.
As to `COc1cc(-c2nnc3n2CCCC3(Cc2ccc(F)c(F)c2)C(C)(C)O)ccc1-c1cnc(C)o1` (centres unmarked) [Example 49, 2-{8-(3,4-difluorobenzyl)-3-[3-methoxy-4-(2-methyl-1,3-oxazol-5-yl)phenyl]-5,6,7,8-tetrahydro[1,2,4]triazolo[4,3-a]pyridin-8-yl}propan-2-ol], the IC50 turned out to be 31 nM.
Consider `COc1cc(-c2nnc3n2CCCC3(Cc2ccc(F)c(F)c2)C(C)(C)O)ccc1-c1cnc(C)o1` (centres unmarked) [Example 50, optically active 2-{8-(3,4-difluorobenzyl)-3-[3-methoxy-4-(2-methyl-1,3-oxazol-5-yl)phenyl]-5,6,7,8-tetrahydro[1,2,4]triazolo[4,3-a]pyridin-8-yl}propan-2-ol], for which the concentration for half-maximal inhibition (IC50) was determined as 14 nM.
Consider `COc1nc(-c2nnc3n2CCC[C@]3(Oc2cc(F)c(F)c(F)c2)C(C)(C)O)ccc1-n1cnc(C)c1` [Example 177, 2-{(8R)-3-[6-methoxy-5-(4-methyl-1H-imidazol-1-yl)pyridin-2-yl]-8-(3,4,5-trifluorophenoxy)-5,6,7,8-tetrahydro[1,2,4]triazolo[4,3-a]pyridin-8-yl}propan-2-ol monophosphate], for which the IC50 stood at 34 nM.
